Test results published in patent US8592422B2, “Bicyclic triazole and pyrazole lactams as allosteric modulators of mGluR5 receptors” (Vanderbilt University, priority 2010, dated 2013).
“And” between values parts separate entries of the source, which are not always exact repeats. Identical values can stand only once. Like-named read-outs stand apart in the source and are kept apart here.

Tests used:
human mGluR5a receptor = target: T1, human mGluR5a receptor (Homo sapiens, UniProt P41594); test: Cell-based functional Ca2+ mobilization assay (FDSS), potentiation of glutamate EC20 response; conditions: for EC50 / pEC50: HEK cells transfected with human mGluR5 (H10H or H12H), in presence of EC20 glutamate; for Emax / Emax (%): maximum % effect in concentration-response curve, as percent of response to maximally effective glutamate
T1 construct: cDNA subcloned into pcDNA3.1(-)
T1 sequence (P41594 21-1180 isoform P41594-2 limits assumed): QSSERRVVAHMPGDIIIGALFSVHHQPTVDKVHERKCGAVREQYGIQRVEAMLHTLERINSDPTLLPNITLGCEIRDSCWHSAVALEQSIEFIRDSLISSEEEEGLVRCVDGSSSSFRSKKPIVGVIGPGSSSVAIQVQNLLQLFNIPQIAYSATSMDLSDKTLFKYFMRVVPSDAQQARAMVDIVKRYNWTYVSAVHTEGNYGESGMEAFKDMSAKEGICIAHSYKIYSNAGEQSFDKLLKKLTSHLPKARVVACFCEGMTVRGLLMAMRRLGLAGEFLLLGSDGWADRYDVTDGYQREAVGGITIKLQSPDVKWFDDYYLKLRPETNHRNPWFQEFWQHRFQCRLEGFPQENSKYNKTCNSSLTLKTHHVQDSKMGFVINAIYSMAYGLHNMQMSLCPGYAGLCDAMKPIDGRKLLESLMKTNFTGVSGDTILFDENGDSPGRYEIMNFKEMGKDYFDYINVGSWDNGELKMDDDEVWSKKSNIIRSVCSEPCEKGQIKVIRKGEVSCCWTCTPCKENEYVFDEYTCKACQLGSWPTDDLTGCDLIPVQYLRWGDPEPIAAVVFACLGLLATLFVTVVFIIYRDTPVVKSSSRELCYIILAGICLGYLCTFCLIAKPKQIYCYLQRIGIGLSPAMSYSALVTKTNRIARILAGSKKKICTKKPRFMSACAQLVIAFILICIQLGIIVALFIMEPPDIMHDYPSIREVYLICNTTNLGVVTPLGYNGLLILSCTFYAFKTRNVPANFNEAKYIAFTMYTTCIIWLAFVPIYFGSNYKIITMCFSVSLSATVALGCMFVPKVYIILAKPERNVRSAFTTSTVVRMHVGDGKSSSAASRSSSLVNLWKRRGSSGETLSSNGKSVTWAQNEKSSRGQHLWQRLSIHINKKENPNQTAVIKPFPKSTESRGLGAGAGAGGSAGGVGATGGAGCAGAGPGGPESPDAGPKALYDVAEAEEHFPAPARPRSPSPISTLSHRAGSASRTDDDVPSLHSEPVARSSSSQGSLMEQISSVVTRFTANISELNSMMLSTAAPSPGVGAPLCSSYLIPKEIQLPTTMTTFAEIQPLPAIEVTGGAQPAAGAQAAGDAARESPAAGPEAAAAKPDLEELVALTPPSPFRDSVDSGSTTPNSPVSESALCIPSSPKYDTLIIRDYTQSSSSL
Outline: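 HEK293A cells stably expressing human mGluR5a (H10H or H12H clones), plated overnight in glutamate-glutamine-free medium, loaded with Ca2+-sensitive dye (e.g. Fluo-4) and read on FDSS.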

CN(C)c1cccc(OCc2cc3n(n2)CCN(c2ccc(F)cc2)C3=O)n1 [Example 310]
EC50 (human mGluR5a receptor; read-out: EC50): > 30200 nM
Emax (human mGluR5a receptor): 26%
melting point: 153.8 °C

COc1cccc(N2CCn3nc(COc4ccc(F)cc4)cc3C2=O)c1 [Example 220]
EC50 (human mGluR5a receptor; read-out: EC50): 350 nM
EC50 (human mGluR5a receptor; read-out: pEC50 (converted)): 355 nM
Emax (human mGluR5a receptor): 63%
melting point: 130.4 °C

Cc1nc(N2C(=O)c3cc(COc4ccccc4)nn3C[C@H]2C)ccc1F [Example 140]
EC50 (human mGluR5a receptor; read-out: EC50): 170 nM
Emax (human mGluR5a receptor): 68%
melting point: 156 °C

O=C1c2cc(COc3ccncc3)nn2CCN1c1ccc(F)cc1 [Example 160]
EC50 (human mGluR5a receptor; read-out: EC50): 631 nM
Emax (human mGluR5a receptor): 68%
melting point: 149.5 °C

O=C1c2cc(COc3ccccc3)nn2CCN1c1ncc(F)cn1 [Example 126]
EC50 (human mGluR5a receptor; EC50 (nM)): 780 nM
Emax (human mGluR5a receptor): 71%
melting point: 161.3 °C

O=C1c2cc(COc3ncccc3F)nn2CCN1c1ccc(F)cc1 [Example 187]
EC50 (human mGluR5a receptor; read-out: EC50): 2190 nM
Emax (human mGluR5a receptor): 60%
melting point: 165 °C

Cc1ccc(N2CCn3nc(COc4ccccc4)cc3C2=O)cn1 [Example 23]
EC50 (human mGluR5a receptor; read-out: EC50): 1200 nM
Emax (human mGluR5a receptor): 81%
melting point: > 300 °C

CN(C)c1cccc(N2CCn3nc(COc4ccccc4)cc3C2=O)n1 [Example 286]
EC50 (human mGluR5a receptor; read-out: EC50): 30 nM
EC50 (human mGluR5a receptor; read-out: pEC50 (converted)): 36.3 nM and 29.5 nM
Emax (human mGluR5a receptor): 76%
Emax (%) (human mGluR5a receptor): 69%
melting point: 143.7 °C

COc1nc(N2CCn3nc(COc4ccccc4)cc3C2=O)ccc1C [Example 108]
EC50 (human mGluR5a receptor; read-out: pEC50 (converted)): 17.8 nM
Emax (human mGluR5a receptor): 64%
melting point: 145.3 °C

COc1cc(N2CCn3nc(COc4ccccn4)cc3C2=O)ccc1F [Example 204]
EC50 (human mGluR5a receptor; read-out: EC50): 407 nM
Emax (human mGluR5a receptor): 69%
melting point: 143.9 °C

CC1CN(c2ccc(F)cc2)C(=O)c2cc(COc3cccc(C#N)c3)nn21 (stereo not drawn) [Example 241]
EC50 (human mGluR5a receptor; read-out: EC50): > 30200 nM
Emax (human mGluR5a receptor): 21%
melting point: 110.2 °C

COc1cc(N2C(=O)c3cc(COc4ccccc4)nn3C[C@H]2C)ccc1F [Example 143]
EC50 (human mGluR5a receptor; read-out: EC50): 81 nM
Emax (human mGluR5a receptor): 62%
melting point: 135.8 °C

Cc1ccc(OCc2cc3n(n2)CCN(c2ccc(F)cc2)C3=O)nc1 [Example 183]
EC50 (human mGluR5a receptor; read-out: EC50): > 30200 nM
Emax (human mGluR5a receptor): 15%
melting point: 236.2 °C

COc1ccccc1N1CCn2nc(COc3ccccc3)cc2C1=O [Example 47]
EC50 (human mGluR5a receptor; read-out: EC50): 93 nM
Emax (human mGluR5a receptor): 65%
melting point: 145.8 °C

Cn1cnc(N2CCn3nc(COc4ccccc4)cc3C2=O)c1 [Example 321]
EC50 (human mGluR5a receptor; read-out: EC50): > 30200 nM
Emax (human mGluR5a receptor): 23%
melting point: 203.7 °C

COc1ncccc1N1CCn2nc(COc3ccc(F)cc3)cc2C1=O [Example 229]
EC50 (human mGluR5a receptor; read-out: EC50): 380 nM
Emax (human mGluR5a receptor): 66%
melting point: 267.4 °C

Cc1ccccc1OCc1cc2n(n1)CCN(c1ccc(F)cc1)C2=O [Example 191]
EC50 (human mGluR5a receptor; read-out: EC50): 427 nM
Emax (human mGluR5a receptor): 57%
melting point: 132.8 °C

CC(C)c1cccc(N2CCn3nc(COc4ccccc4)cc3C2=O)n1 [Example 111]
EC50 (human mGluR5a receptor; read-out: EC50): 93 nM
Emax (human mGluR5a receptor): 68%
melting point: 101.8 °C

O=C1c2cc(COc3ccccc3)nn2CCN1c1ccc2nsnc2c1 [Example 371]
pEC50 (human mGluR5a receptor): 7.49
EC50 (human mGluR5a receptor; read-out: EC50): 32 nM
Emax (%) (human mGluR5a receptor): 68%

COc1nc(N2CCn3nc(COc4ccccc4)cc3C2=O)ncc1Cl [Example 295]
pEC50 (human mGluR5a receptor): 7.56
EC50 (human mGluR5a receptor; read-out: EC50): 28 nM
Emax (%) (human mGluR5a receptor): 69%

CC1CN(c2ccc(F)cc2)C(=O)c2cc(COc3cccc(F)c3)nn21 (single isomer, unassigned) [Example 239]
pEC50 (human mGluR5a receptor): 7.21
EC50 (human mGluR5a receptor; read-out: EC50): 62 nM
Emax (%) (human mGluR5a receptor): 72%

Cc1cccc(N2CCn3nc(COc4ccccn4)cc3C2=O)c1 [Example 216]
pEC50 (human mGluR5a receptor): 6.39
EC50 (human mGluR5a receptor; read-out: EC50): 410 nM
Emax (%) (human mGluR5a receptor): 63%

O=C1c2cc(COc3ccccc3)nn2CCN1c1cccc(CCF)n1 [Example 75]
pEC50 (human mGluR5a receptor): 6.69
EC50 (human mGluR5a receptor; read-out: EC50): 204 nM
Emax (%) (human mGluR5a receptor): 68%

COc1nccnc1N1CCn2nc(COc3ccc(F)cc3)cc2C1=O [Example 226]
pEC50 (human mGluR5a receptor): 6.08
EC50 (human mGluR5a receptor; read-out: EC50): 830 nM
Emax (%) (human mGluR5a receptor): 57%

COc1nccc(N2CCn3nc(COc4ccccc4)cc3C2=O)n1 [Example 110]
pEC50 (human mGluR5a receptor): 6.70
EC50 (human mGluR5a receptor; read-out: EC50): 200 nM
Emax (%) (human mGluR5a receptor): 68%

O=C1c2cc(COc3ccccc3)nn2CCN1c1nc2ccccc2o1 [Example 324]
pEC50 (human mGluR5a receptor): 7.24
EC50 (human mGluR5a receptor; read-out: EC50): 58 nM
Emax (%) (human mGluR5a receptor): 71%

O=C1c2c(Cl)c(COc3ccccc3)nn2CCN1c1ccc(F)cc1 [Example 260]
pEC50 (human mGluR5a receptor): <4.52
EC50 (human mGluR5a receptor; read-out: EC50): > 30200 nM
Emax (%) (human mGluR5a receptor): 17%

O=C1c2cc(COc3ccccc3)nn2C(F)CN1c1ccc(F)cc1 (single isomer, unassigned) [Example 273]
pEC50 (human mGluR5a receptor): 6.97
EC50 (human mGluR5a receptor; read-out: EC50): 107 nM
Emax (%) (human mGluR5a receptor): 68%

CN(C)c1ccc(N2CCn3nc(COc4ccccc4)cc3C2=O)nn1 [Example 284]
pEC50 (human mGluR5a receptor): 5.55
EC50 (human mGluR5a receptor; read-out: EC50): 2820 nM
Emax (%) (human mGluR5a receptor): 53%
